Experimental data published in patent US12202828B2, “Bicyclic heterocycle compounds and their uses in therapy” (ASTEX THERAPEUTICS LIMITED, priority 2013, dated 2025).
pEC50, pIC50: −log10 of the molar value. Several values for one entry are separate records, joined by “and”; a condition that tells them apart may be missing. Equal values may be shown once. Where a name gives a salt, the structure may show the parent alone. Read-outs that look alike come from different tables or passages of the source.

Tests used:
Assay type in all cases: cell-based
hERG ion channel = molecular target: T1, hERG ion channel (Homo sapiens, UniProt Q12809); assay: Population Patch Clamp (PPC) hERG assay in CHO K1 cells; settings: for pIC50: CHO K1 cells stably transfected with hERG
T1 construct: expressed in transfected cells; host or cells: CHO K1
Description: Inhibition of the hERG channel was measured by automated patch clamp assay in CHO K1 cells, stably transfected with the hERG ion channel. PPC measurements were performed using an IonWorks Quattro instrument (Molecular Devices Corporation, Union City, CA) using a 384 well PatchPlate (Molecular Devices Corporation) with 64 apertures per well. Each concentration of test compound was tested in duplicate wells. Amphotericin B was used to obtain electrical access to the cell interior at a final concentration of 200 μg/mL. Human ether-à-gogo related gene (hERG) currents were measured with a prepulse to +40 mV (2 s) from the holding potential of −80 mV, followed by a step to −50 mV (2 s) to elicit the deactivating tail currents, before returning to the holding potential for 1s. Compounds were incubated for 600s between the pre- and post-compound reads. The external recording solution used was 130 mM Na Gluconate, 20 mM NaCl, 4 mM KCl, 1 mM MgCl2, 1.8 mM CaCl2, 10 mM Hepes, 5 mM Glucose, pH to 7.3 with NaOH. All data were filtered for seal quality, seal drop, and current amplitude. The maximum current amplitude of the 3rd pulse tail current was calculated before (Pre) and after (Post) compound addition and the amount of block assessed by dividing the Post-compound current amplitude by the Pre-compound current amplitude.

[1] = molecular target: T2, XIAP-Caspase-9 in HEK293-XIAP-Caspase-9 cells (Homo sapiens, UniProt P98170); assay: HEK293-XIAP-Caspase-9 immunoprecipitation (IP) MSD assay; settings: compound 2 h at 37° C.; read-out: HEK293-X-C9 IP
T2 construct: FLAG; expressed in transfected cells
Description: Stable HEK293-XIAP-Caspase-9 cells were plated out into 96-well plates [200 μl/well at 1×10^6 cells/mL in cultured complete medium (DMEM+10% FBS+0.5 mg/mL Geneticin (Invitrogen)] and left overnight at 37° C. to recover. Compounds were added to duplicate wells in 0.1% DMSO for 2 h at 37° C. Cells were lysed in 50 μl 1×MSD lysis buffer (1% Triton X-100 in 20 mM Tris·Cl (pH 7.6), 150 mM NaCl including protease inhibitors) for 20 min rocking at room temperature. Streptavidin high bind MSD plate (L15SB-2) were coated with biotinylated anti-FLAG M2 antibody (Sigma F9291) at 25 μl/well with a 5 μg/mL dilution of antibody in PBS for 1 h, shaking; followed by blocking for 1 h with 150 μl 3% BSA/TBST. Cell lysate (25 μl) was added to the 96-well anti-FLAG coated MSD plate and placed on shaker for 4 h at room temperature. […] Plates were washed 4 times with 150 μl TBST, and 150 μl/well 1×MSD read buffer (R92TC-2) added before reading each plate.
EC50 values were determined from dose-response plots using nonlinear least-squares analysis.

[2] = tested on: EVSA-T (human breast carcinoma); assay: Anti-proliferative activity, Alamar Blue assay, EVSA-T; settings: 72 hours compound, read-out: EVSA-T prolif
Description: The method is based on the ability of viable cells to reduce resazurin to its fluorescent product resorufin. For each proliferation assay cells are plated onto 96 well plates and allowed to recover for 16 hours prior to the addition of inhibitor compounds (in 0.1% DMSO v/v) for a further 72 hours.
The anti-proliferative activities of compounds of the invention can be determined by measuring the ability of the compounds to inhibit growth in 3 cancer cell lines: • EVSA-T (human breast carcinoma) DSMZ cat. no.

T2 sequence (P98170 whole entry): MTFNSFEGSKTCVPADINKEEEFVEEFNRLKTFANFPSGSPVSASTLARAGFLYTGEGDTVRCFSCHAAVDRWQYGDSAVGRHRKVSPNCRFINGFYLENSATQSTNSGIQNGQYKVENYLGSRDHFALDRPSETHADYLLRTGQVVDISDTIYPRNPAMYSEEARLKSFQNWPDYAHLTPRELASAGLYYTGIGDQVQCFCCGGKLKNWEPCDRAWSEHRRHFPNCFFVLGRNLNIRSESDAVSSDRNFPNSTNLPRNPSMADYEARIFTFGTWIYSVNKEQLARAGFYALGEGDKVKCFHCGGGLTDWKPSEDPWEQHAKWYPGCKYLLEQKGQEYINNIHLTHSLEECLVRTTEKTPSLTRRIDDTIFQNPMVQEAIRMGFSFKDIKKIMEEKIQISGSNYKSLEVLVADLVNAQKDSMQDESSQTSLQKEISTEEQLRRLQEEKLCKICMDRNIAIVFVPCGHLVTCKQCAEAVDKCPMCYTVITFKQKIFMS
T1 sequence (Q12809 whole entry): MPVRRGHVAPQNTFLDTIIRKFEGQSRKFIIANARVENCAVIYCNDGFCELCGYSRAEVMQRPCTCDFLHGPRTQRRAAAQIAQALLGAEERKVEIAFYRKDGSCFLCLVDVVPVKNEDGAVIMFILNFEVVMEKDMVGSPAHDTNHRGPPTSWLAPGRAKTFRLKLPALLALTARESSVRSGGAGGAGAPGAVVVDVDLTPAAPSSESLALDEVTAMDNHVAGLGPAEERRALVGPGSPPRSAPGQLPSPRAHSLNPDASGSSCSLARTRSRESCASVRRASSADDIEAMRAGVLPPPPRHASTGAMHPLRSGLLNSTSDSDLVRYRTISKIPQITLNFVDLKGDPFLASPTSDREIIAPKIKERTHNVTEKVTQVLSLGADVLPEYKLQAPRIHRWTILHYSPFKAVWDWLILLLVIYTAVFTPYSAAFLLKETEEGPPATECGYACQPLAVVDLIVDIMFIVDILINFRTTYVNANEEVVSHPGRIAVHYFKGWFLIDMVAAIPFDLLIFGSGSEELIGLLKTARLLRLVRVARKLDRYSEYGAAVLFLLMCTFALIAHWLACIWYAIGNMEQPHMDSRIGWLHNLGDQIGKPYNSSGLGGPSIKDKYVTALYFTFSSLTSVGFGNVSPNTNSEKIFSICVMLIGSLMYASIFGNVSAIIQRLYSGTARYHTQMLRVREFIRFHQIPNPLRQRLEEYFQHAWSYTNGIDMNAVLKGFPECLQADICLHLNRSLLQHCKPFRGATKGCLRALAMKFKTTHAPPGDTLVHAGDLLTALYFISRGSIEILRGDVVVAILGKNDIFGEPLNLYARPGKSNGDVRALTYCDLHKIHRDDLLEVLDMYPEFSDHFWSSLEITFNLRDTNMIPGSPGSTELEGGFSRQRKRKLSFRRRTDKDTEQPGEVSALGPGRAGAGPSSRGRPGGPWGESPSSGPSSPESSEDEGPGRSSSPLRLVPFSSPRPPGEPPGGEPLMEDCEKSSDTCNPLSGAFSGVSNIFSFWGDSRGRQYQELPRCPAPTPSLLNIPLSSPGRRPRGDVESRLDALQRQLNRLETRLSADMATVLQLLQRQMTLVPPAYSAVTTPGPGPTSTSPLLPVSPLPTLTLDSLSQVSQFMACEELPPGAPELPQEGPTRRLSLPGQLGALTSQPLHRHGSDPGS

SMILES | hERG PPC (PI) (hERG ion channel; @ 100 μM) | pEC50 [1] | further results
C[C@@H]1CN(CC(=O)N2CC(C)(C)c3c2cc(Cc2ccc(F)cc2F)c(=O)n3C)[C@@H](CN2[C@H](C)COC[C@H]2C)CN1 [Example 12, 6-[(2,4-Difluorophenyl)methyl]-1-{2-[(2R,5R)-2-{[(3R,5R)-3,5-dimethylmorpholin-4-yl]methyl}-5-methylpiperazin-1-yl]acetyl}-3,3,4-trimethyl-1H,2H,3H,4H,5H-pyrrolo [3,2-b]pyridin-5-one dihydrochloride] | 41% @ 100 | 9.16 | 
C[C@@H]1CN(CC(=O)N2CC(C)(C)c3nc(CO)c(Cc4cccc(F)c4)cc32)[C@@H](CN2CCOC[C@H]2C)CN1 [Example 15, 1-{6-[(3-Fluorophenyl)methyl]-5-(hydroxymethyl)-3,3-dimethyl-1H,2H,3H-pyrrolo[3,2-b]pyridin-1-yl}-2-[(2R,5R)-5-methyl-2-{[(3R)-3-methylmorpholin-4-yl]methyl}piperazin-1-yl]ethan-1-one dihydrochloride] | 55% @ 100 | 8.31 | pEC50 ([2]; dihydrochloride): 8.11; pEC50 ([2]; Homo sapiens, EVSA-T, 72 h): > 8.00
C[C@@H]1CN(CC(=O)N2CC(C)(C)c3cc(=O)n(Cc4ccc(F)cc4)cc32)[C@@H](CN2CCOC[C@H]2C)CN1 [Example 17, 6-[(4-Fluorophenyl)methyl]-3,3-dimethyl-1-{2-[(2R,5R)-5-methyl-2-{[(3R)-3-methylmorpholin-4-yl]methyl}piperazin-1-yl]acetyl}-1H,2H,3H,5H,6H-pyrrolo[2,3-c]pyridin-5-one dihydrochloride] |  | 7.55 | hERG PPC (PI) (hERG ion channel; @ 300 μM): 59% @ 300
C[C@@H]1CN(CC(=O)N2CC(C)(C)c3c2cc(Cc2ccc(F)cc2)c(=O)n3C)[C@@H](CN2C[C@H](C)OC[C@H]2C)CN1 [Example 18, 1-{2-[(2R,5R)-2-{[(2S,5R)-2,5-Dimethylmorpholin-4-yl]methyl}-5-methylpiperazin-1-yl]acetyl}-6-[(4-fluorophenyl)methyl]-3,3,4-trimethyl-1H,2H,3H,4H,5H-pyrrolo[3,2-b]pyridin-5-one trihydrochloride] |  | 8.92 | hERG PPC (PI) (hERG ion channel; @ 75 μM): 44% @ 75
C[C@@H]1CN(CC(=O)N2CC(C)(C)c3c2cc(Cc2ccc(F)cc2F)c(=O)n3C)[C@@H](CN2CCOC[C@H]2C)CN1 [Example 19, 6-[(2,4-Difluorophenyl)methyl]-3,3,4-trimethyl-1-{2-[(2R,5R)-5-methyl-2-{[(3R)-3-methylmorpholin-4-yl]methyl}piperazin-1-yl]acetyl}-1H,2H,3H,4H,5H-pyrrolo[3,2-b]pyridin-5-one dihydrochloride] | 42% @ 100 | 8.92 | 
C[C@@H]1CN(CC(=O)N2CC(C)(C)c3cc(=O)n(Cc4ccc(F)cc4F)cc32)[C@@H](CN2[C@H](C)COC[C@H]2C)CN1 [Example 20, 6-[(2,4-Difluorophenyl)methyl]-1-{2-[(2R,5R)-2-{[(3R,5R)-3,5-dimethylmorpholin-4-yl]methyl}-5-methylpiperazin-1-yl]acetyl}-3,3-dimethyl-1H,2H,3H,5H,6H-pyrrolo[2,3-c]pyridin-5-one dihydrochloride] | 44% @ 100 | 8.20 | 
C[C@@H]1CN(CC(=O)N2CC(C)(C)c3cc(=O)n(Cc4ccc(F)cc4F)cc32)[C@@H](CN2C[C@H](C)OC[C@H]2C)CN1.Cl.Cl [Example 22, 6-[(2,4-Difluorophenyl)methyl]-1-{2-[(2R,5R)-2-{[(2S,5R)-2,5-dimethylmorpholin-4-yl]methyl}-5-methylpiperazin-1-yl]acetyl}-3,3-dimethyl-1H,2H,3H,5H,6H-pyrrolo[2,3-c]pyridin-5-one dihydrochloride] | 47% @ 100 | 8.41 | 
C[C@@H]1CN(CC(=O)N2CC(C)(C)c3c2cc(Cc2ccc(F)cc2F)c(=O)n3N)[C@@H](CN2CCOC[C@H]2C)CN1.Cl.Cl [Example 23, 4-Amino-6-[(2,4-difluorophenyl)methyl]-3,3-dimethyl-1-{2-[(2R,5R)-5-methyl-2-{[(3R)-3-methylmorpholin-4-yl]methyl}piperazin-1-yl]acetyl}-1H,2H,3H,4H,5H-pyrrolo[3,2-b] pyridin-5-one dihydrochloride] | 63% @ 100 | 9.11 | 
C[C@@H]1CN(CC(=O)N2CC(C)(C)c3c2cc(Cc2ccc(F)cc2)c(=O)n3N)[C@@H](CN2CCOC[C@H]2C)CN1 [Example 24, 4-Amino-6-[(4-fluorophenyl)methyl]-3,3-dimethyl-1-{2-[(2R,5R)-5-methyl-2-{[(3R)-3-methylmorpholin-4-yl]methyl}piperazin-1-yl]acetyl}-1H,2H,3H,4H,5H-pyrrolo[3,2-b]pyridin-5-one dihydrochloride] | 40% @ 100 | 9.24 and 8.96 | 
CCCCc1cc2c(n(N)c1=O)C(C)(C)CN2C(=O)CN1C[C@@H](C)NC[C@@H]1CN1[C@H](C)COC[C@H]1C [Example 30, 4-Amino-6-butyl-1-{2-[(2R,5R)-2-{[(3R,5R)-3,5-dimethylmorpholin-4-yl]methyl}-5-methylpiperazin-1-yl]acetyl}-3,3-dimethyl-1H,2H,3H,4H,5H-pyrrolo[3,2-b]pyridin-5-one dihydrochloride] |  | 8.92 and 8.85 | pIC50 (hERG ion channel): 3.64
Cc1c2c(cn(Cc3ccc(F)cc3F)c1=O)N(C(=O)CN1C[C@@H](C)NC[C@@H]1CN1CCOC[C@H]1C)CC2(C)C [Example 31, 6-[(2,4-Difluorophenyl)methyl]-3,3,4-trimethyl-1-{2-[(2R,5R)-5-methyl-2-{[(3R)-3-methylmorpholin-4-yl]methyl}piperazin-1-yl]acetyl}-1H,2H,3H,5H,6H-pyrrolo[2,3-c]pyridin-5-one dihydrochloride] |  | 9.03 and 8.66 | pIC50 (hERG ion channel): 3.85
CCCCc1cc2c([nH]c1=O)C(C)(C)CN2C(=O)CN1C[C@@H](C)NC[C@@H]1CN1[C@H](C)COC[C@H]1C [Example 32, 6-Butyl-1-{2-[(2R,5R)-2-{[(3R,5R)-3,5-dimethylmorpholin-4-yl]methyl}-5-methylpiperazin-1-yl]acetyl}-3,3-dimethyl-1H,2H,3H,4H,5H-pyrrolo[3,2-b]pyridin-5-one dihydrochloride] |  | 8.82 | hERG PPC (PI) (hERG ion channel; @ 500 μM): 55% @ 500
CCCCc1cc2c(n(C)c1=O)C(C)(C)CN2C(=O)CN1C[C@@H](C)NC[C@@H]1CN1[C@H](C)COC[C@H]1C [Example 33, 6-Butyl-1-{2-[(2R,5R)-2-{[(3R,5R)-3,5-dimethylmorpholin-4-yl]methyl}-5-methylpiperazin-1-yl]acetyl}-3,3,4-trimethyl-1H,2H,3H,4H,5H-pyrrolo[3,2-b]pyridin-5-one dihydrochloride] |  | 8.62 | hERG PPC (PI) (hERG ion channel; @ 31.3 μM): 33% @ 31.3
CCCCc1cc2c(nc1CO)C(C)(C)CN2C(=O)CN1C[C@@H](C)NC[C@@H]1CN1[C@H](C)COC[C@H]1C [Example 34, 1-[6-Butyl-5-(hydroxymethyl)-3,3-dimethyl-1H,2H,3H-pyrrolo[3,2-b]pyridin-1-yl]-2-[(2R,5R)-2-{[(3R,5R)-3,5-dimethylmorpholin-4-yl]methyl}-5-methylpiperazin-1-yl] ethan-1-one dihydrochloride] |  | 8.42 | pIC50 (hERG ion channel): 4.26
